C1CC1N1C2C3N(C4CC4)C1C1N(C4CC4)C(C(N1C1CC1)N3C1CC1)N2C1CC1
solubility (mole fraction)
Details	278.15 K	283.15 K	288.15 K	293.15 K	298.15 K	303.15 K	308.15 K	313.15 K	318.15 K
in 1,1,2-trichloroethane	0.00866	0.00991	0.0113	0.0127	0.0143	0.0161	0.0182	0.0206	0.0234
in 1,2-dichloroethane	0.00228	0.00279	0.00343	0.00421	0.00513	0.00624	0.00752	0.00903	0.0108
in acetone	0.000269	0.000333	0.000411	0.000503	0.000611	0.000736	0.000875	0.00103	0.0012
in acetonitrile	5.71e-05	6.68e-05	7.76e-05	8.91e-05	0.000101	0.000114	0.000128	0.000143	0.000159
in chloroform	0.0231	0.0263	0.0297	0.0332	0.0367	0.0405	0.0444	–	–
in cyclohexane	–	0.00931	0.0111	0.0132	0.0157	0.0186	0.0218	0.0255	0.0297
in dichloromethane	0.0129	0.0147	0.0169	0.0194	0.0222	0.0255	0.0291	–	–
in ethanol	0.000225	0.000283	0.00036	0.000452	0.000557	0.000675	0.000805	0.000951	0.00111
in ethyl acetate	0.00121	0.0014	0.00168	0.00204	0.00249	0.00305	0.00373	0.00455	0.00552
in methanol	4.66e-05	7.71e-05	0.00011	0.000144	0.00018	0.000219	0.000259	0.0003	0.000341
in n-hexane	0.00406	0.00447	0.00507	0.00588	0.00692	0.00819	0.00973	0.0116	0.0138
in tetrachloromethane	0.0269	0.0298	0.0333	0.0372	0.0415	0.0461	0.0511	0.0568	0.0632

From BigSolDB 2.1
